Data: article PMC10218234, “Design, Synthesis and Antitumor Activity of 1H-indazole-3-amine Derivatives” (International Journal of Molecular Sciences, 2023)
Read-outs that look alike come from different tables or passages of the source. Values belong to the molecule of their own block, whether it stands above or below them.

Assays:
PC-3 cells = experiment: MTT anti-proliferative assay, PC-3; assay type: cell-based; details: Homo sapiens, PC-3, 48 h
Protocol: (§1) The antiproliferative activity of the target indazole derivatives was evaluated against a panel of human cancer cell lines (human chronic myeloid leukemia cell lines K562; human lung cancer cell lines A549; human prostate cancer cell lines PC-3; human hepatoma cell lines HepG-2) in vitro, and human embryonic kidney cell lines HEK-293 were used to evaluate the cytotoxicity of a normal cell with high activity derivatives by MTT assay. Moreover, 5-fluorouracil (5-Fu), a broad-spectrum drug antitumor drug with therapeutic effects on various cancers, was used as a positive control.
(§2) Lung (A549), chronic myeloid leukemia (K562), prostate (PC3), and live (Hep-G2) cells were purchased from the Cell Bank of the Chinese Academy of Sciences (Kunming, China). A549, K562, and PC-3 cells were cultured in RPMI-1640 medium and the liver cells Hep-G2 were cultured in MEM medium. All mediums were supplemented with 10% FBS, 100 μg/mL penicillin and 100 μg/mL streptomycin. All cells were cultivated in a 5% CO2 incubator at 37 °C.
(§3) Exponentially growing cells were seeded at a density of 5000 cells per well in 96-well plates containing 100 μL of fresh growth medium. After allowing the cells to attach for 24 h, target compounds were added. After incubation for 48 h, viable cells were stained with MTT (0.5 mg/mL) for 4 h, and the produced formazan crystals were dissolved with 150 µL of dimethyl sulfoxide. Absorbance was measured at 490 nm using an automated microplate reader (Tecan, Infinite M200 Pro, Männedorf, Switzerland). The relative cell viability was calculated according to the following equation: Cell viability%=experimental OD value/control OD value×100%Cell inhibition%=control OD value−experimental OD value/control OD value×100%
(§4) Cell inhibition%=control OD value−experimental OD value/control OD value×100%

K562 cells = experiment: MTT anti-proliferative assay, K562; assay type: cell-based; details: Homo sapiens, read-out: IC50 ± SD, K562
Protocol: as §1, §2
as §3, with “To investigate the anticancer activity of indazole derivatives, A549, K562, PC3, and Hep-G2 cells were treated with targets compounds respectively for 48 h in a range of concentrations (from 0.625 to 10 μM) and subjected to a proliferation assay using the MTT assay. Exponentially” for “Exponentially”
as §4

Hep-G2 cells = experiment: MTT anti-proliferative assay, Hep-G2; assay type: cell-based; details: Homo sapiens, HepG2, 48 h, read-out: IC50 ± SD, Hep-G2
Protocol: as §1, §2
as §3, with “To investigate the anticancer activity of indazole derivatives, A549, K562, PC3, and Hep-G2 cells were treated with targets compounds respectively for 48 h in a range of concentrations (from 0.625 to 10 μM) and subjected to a proliferation assay using the MTT assay. Exponentially” for “Exponentially”
as §4

A549 cells = experiment: MTT anti-proliferative assay, A549; assay type: cell-based; details: Homo sapiens, read-out: IC50 ± SD, A549
Protocol: as §1, §2
as §3, with “To investigate the anticancer activity of indazole derivatives, A549, K562, PC3, and Hep-G2 cells were treated with targets compounds respectively for 48 h in a range of concentrations (from 0.625 to 10 μM) and subjected to a proliferation assay using the MTT assay. Exponentially” for “Exponentially”
as §4

[1] = Table 2, read-out: IC50 ± SD, PC-3
[2] = Table 1, read-out: IC50 ± SD, PC-3

SMILES: O=C(CSc1ccc([N+](=O)[O-])cc1)Nc1n[nH]c2ccc(-c3cc(F)cc(F)c3)cc12 [5o]
IC50 (PC-3 cells; [2]): 12.5 ± 2.1 µM
IC50 (K562 cells; Table 1, 48 h): 8.09 ± 1.27 µM
IC50 (Hep-G2 cells; Table 1, 48 h): 8.3 ± 0.56 µM
IC50 (A549 cells; Table 1, 48 h): 6.64 ± 0.47 µM

SMILES: O=C(CSc1ccccc1Br)Nc1n[nH]c2ccc(-c3cc(F)cc(F)c3)cc12 [5l]
IC50 (PC-3 cells; [2]): > 50 µM
IC50 (K562 cells; Table 1, 48 h): 8.19 ± 1.43 µM
IC50 (Hep-G2 cells; Table 1, 48 h): 14.9 ± 0.77 µM
melting point: 199 to 200 °C
IC50 (A549 cells; Table 1, 48 h): 14.1 ± 1.71 µM

SMILES: O=C(CSc1ncccn1)Nc1n[nH]c2ccc(-c3cc(F)cc(F)c3)cc12 [5q]
IC50 (PC-3 cells; [2]): 7.81 ± 0.64 µM
IC50 (K562 cells; Table 1, 48 h): 14.3 ± 2.13 µM
IC50 (Hep-G2 cells; Table 1, 48 h): 6.3 ± 0.03 µM
IC50 (A549 cells; Table 1, 48 h): 16.2 ± 1.46 µM

SMILES: O=C(CSc1ccc(Cl)cc1)Nc1n[nH]c2ccc(-c3cc(F)cc(F)c3)cc12 [5m]
IC50 (PC-3 cells; [2]): > 50 µM
IC50 (K562 cells; Table 1, 48 h): 13.1 ± 0.46 µM
IC50 (Hep-G2 cells; Table 1, 48 h): 35.6 ± 4.21 µM
melting point: 200 to 202 °C
IC50 (A549 cells; Table 1, 48 h): 20.2 ± 3.14 µM

SMILES: O=C(CSc1ccccc1Br)Nc1n[nH]c2ccc(-c3cccc(F)c3)cc12 [5d]
IC50 (PC-3 cells; [2]): 19.7 ± 2.38 µM
IC50 (K562 cells; Table 1, 48 h): 27.2 ± 0.66 µM
IC50 (Hep-G2 cells; Table 1, 48 h): 45.9 ± 2.24 µM
IC50 (A549 cells; Table 1, 48 h): 16.6 ± 3.22 µM

SMILES: COc1ccc(SCC(=O)Nc2n[nH]c3ccc(-c4cccc(F)c4)cc23)cc1 [compound 5a]
IC50 (PC-3 cells; [2]): 15.5 ± 1.33 µM
IC50 (K562 cells; Table 1, 48 h): 9.32 ± 0.59 µM
IC50 (Hep-G2 cells; Table 1, 48 h): 12.7 ± 1.31 µM
IC50 (A549 cells; Table 1, 48 h): 4.66 ± 0.45 µM

SMILES: O=C(CSc1ccc(F)cc1)Nc1n[nH]c2ccc(-c3cccc(F)c3)cc12 [5b]
IC50 (PC-3 cells; [2]): 38.4 ± 24.1 µM
IC50 (K562 cells; Table 1, 48 h): 6.97 ± 0.99 µM
IC50 (Hep-G2 cells; Table 1, 48 h): > 50 µM
IC50 (A549 cells; Table 1, 48 h): 5.25 ± 0.57 µM

SMILES: O=C(CSc1ccc(Br)cc1)Nc1n[nH]c2ccc(-c3cccc(F)c3)cc12 [5c]
IC50 (PC-3 cells; [2]): 60.7 ± 2.91 µM
IC50 (K562 cells; Table 1, 48 h): 9.33 ± 0.64 µM
IC50 (Hep-G2 cells; Table 1, 48 h): 4.76 ± 0.63 µM
IC50 (A549 cells; Table 1, 48 h): 5.63 ± 0.59 µM

SMILES: O=C(CSc1ccncc1)Nc1n[nH]c2ccc(-c3cc(F)cc(F)c3)cc12 [5p]
IC50 (PC-3 cells; [2]): 22.5 ± 9.13 µM
IC50 (K562 cells; Table 1, 48 h): 15.42 ± 0.15 µM
IC50 (Hep-G2 cells; Table 1, 48 h): 7.14 ± 0.33 µM
IC50 (A549 cells; Table 1, 48 h): 16 ± 0.37 µM

SMILES: COc1ccc(SCC(=O)Nc2n[nH]c3ccc(-c4ccc(F)cc4)cc23)cc1 [5e]
IC50 (PC-3 cells; [2]): 12.8 ± 3.09 µM
IC50 (K562 cells; Table 1, 48 h): > 50 µM
IC50 (Hep-G2 cells; Table 1, 48 h): 8.2 ± 0.91 µM
IC50 (A549 cells; Table 1, 48 h): 7.23 ± 0.4 µM

The next lines start with the values.

IC50 (PC-3 cells; [1]): 17.6 ± 1.4 µM
IC50 (K562 cells; Table 2, 48 h): 18.2 ± 2.91 µM
IC50 (Hep-G2 cells; Table 2, 48 h): > 50 µM
melting point: 187 to 189 °C
IC50 (A549 cells; Table 2, 48 h): 17.6 ± 4.11 µM
SMILES: COc1ccc(-c2ccc3[nH]nc(NC(=O)CN4CCN(c5ccc(C(F)(F)F)cc5)CC4)c3c2)cc1 [6d]

IC50 (PC-3 cells; [1]): 12.8 ± 2.95 µM
IC50 (K562 cells; Table 2, 48 h): 13.2 ± 1.44 µM
IC50 (Hep-G2 cells; Table 2, 48 h): 2.58 ± 0.42 µM
melting point: 184 to 186 °C
IC50 (A549 cells; Table 2, 48 h): 28.6 ± 2.52 µM
SMILES: O=C(CN1CCN(c2ccc(Br)cc2)CC1)Nc1n[nH]c2ccc(-c3cc(F)cc(F)c3)cc12 [6i]

IC50 (PC-3 cells; [1]): 10.7 ± 1.66 µM
IC50 (K562 cells; Table 2, 48 h): 5.61 ± 1.14 µM
IC50 (Hep-G2 cells; Table 2, 48 h): 2.7 ± 0.47 µM
melting point: 160 to 162 °C
IC50 (A549 cells; Table 2, 48 h): 12.8 ± 2.66 µM
SMILES: O=C(CN1CCN(c2ccc(F)cc2F)CC1)Nc1n[nH]c2ccc(-c3ccc(Cl)c(Cl)c3)cc12 [6q]

IC50 (PC-3 cells; [1]): 19.9 ± 2.71 µM
IC50 (K562 cells; Table 2, 48 h): 17.9 ± 3.14 µM
IC50 (Hep-G2 cells; Table 2, 48 h): 1.51 ± 0.25 µM
IC50 (A549 cells; Table 2, 48 h): 22.6 ± 6.53 µM
SMILES: O=C(CN1CCN(c2ccc(Cl)c(Cl)c2)CC1)Nc1n[nH]c2ccc(-c3ccc(Cl)c(F)c3)cc12 [6m]

IC50 (PC-3 cells; [1]): 6.12 ± 0.1 µM
IC50 (K562 cells; Table 2, 48 h): 5.19 ± 0.29 µM
IC50 (Hep-G2 cells; Table 2, 48 h): 5.62 ± 1.76 µM
IC50 (A549 cells; Table 2, 48 h): 8.21 ± 0.56 µM
SMILES: O=C(CN1CCN(c2ccc(Cl)c(Cl)c2)CC1)Nc1n[nH]c2ccc(-c3cccc(F)c3)cc12 [compound 6a]

IC50 (PC-3 cells; [1]): 32.1 ± 2.26 µM
IC50 (K562 cells; Table 2, 48 h): > 50 µM
IC50 (Hep-G2 cells; Table 2, 48 h): 2.38 ± 0.37 µM
melting point: 163 to 165 °C
IC50 (A549 cells; Table 2, 48 h): 13.6 ± 0.53 µM
SMILES: O=C(CN1CCN(c2ccccc2Cl)CC1)Nc1n[nH]c2ccc(-c3ccc(Cl)c(F)c3)cc12 [6p]

IC50 (PC-3 cells; [1]): 27.9 ± 26.1 µM
IC50 (K562 cells; Table 2, 48 h): 10 ± 0.94 µM
IC50 (Hep-G2 cells; Table 2, 48 h): > 50 µM
IC50 (A549 cells; Table 2, 48 h): 15.8 ± 1.38 µM
SMILES: O=C(CN1CCN(c2ccc(Br)cc2)CC1)Nc1n[nH]c2ccc(-c3ccc(Cl)c(Cl)c3)cc12 [6r]

IC50 (PC-3 cells; [1]): 41.7 ± 27.9 µM
IC50 (K562 cells; Table 2, 48 h): 11.9 ± 0.85 µM
IC50 (Hep-G2 cells; Table 2, 48 h): 9.56 ± 0.84 µM
IC50 (A549 cells; Table 2, 48 h): > 50 µM
SMILES: O=C(CN1CCN(c2ccc(Cl)c(Cl)c2)CC1)Nc1n[nH]c2ccc(-c3cc(F)cc(F)c3)cc12 [6f]

IC50 (PC-3 cells; [1]): 8.63 ± 0.57 µM
IC50 (K562 cells; Table 2, 48 h): 13.2 ± 1.75 µM
IC50 (Hep-G2 cells; Table 2, 48 h): 2.75 ± 0.78 µM
IC50 (A549 cells; Table 2, 48 h): 15.1 ± 1.36 µM
SMILES: O=C(CN1CCN(c2ccc(F)cc2F)CC1)Nc1n[nH]c2ccc(-c3cc(F)cc(F)c3)cc12 [6h]
